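Dose response: 5 concentrations. Exposure: 48 h. Format: 96-well plates. Endpoint: linear interpolation; highest concentration if not reached. At the GI50, growth is halved.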 The source made the active and inactive calls. Rule as the data show it: active = GI50 up to about 1.1 µM and inactive = higher.
Columns and labels:
Experiment in all cases: DTP human tumour cell line panel, 48 h
SK-MEL-28 = system: SK-MEL-28
SF-295 = system: SF-295
SW-620 = system: SW-620
OVCAR-3 = system: OVCAR-3
RPMI-8226 = system: RPMI-8226
HOP-62 = system: HOP-62
M14 = system: M14
A498 = system: A498
TK-10 = system: TK-10
786-0 = system: 786-0
KM12 = system: KM12
HT-29 = system: HT-29
SNB-78 = system: SNB-78
KM-20L2 = system: KM-20L2
HL-60 = system: HL-60
DMS-114 = system: DMS-114
CAKI-1 = system: CAKI-1
UACC-62 = system: UACC-62
OVCAR-8 = system: OVCAR-8

Measured: GI50

COc1ccc2c3c([nH]c(=O)c2c1C(=O)O)-c1ccccc1CC3
inactive: SK-MEL-28 > 100 µM | SF-295 > 100 µM | SW-620 > 100 µM | OVCAR-3 > 100 µM | RPMI-8226 > 100 µM | HOP-62 > 100 µM | M14 > 100 µM | A498 > 100 µM | TK-10 > 100 µM | 786-0 > 100 µM | KM12 > 100 µM | HT-29 > 100 µM | SNB-78 79.1 µM | KM-20L2 > 100 µM | HL-60 > 100 µM | DMS-114 > 100 µM | CAKI-1 > 100 µM

COc1ccc2c(c1)CCCC1C3=NCCC3(C)CSC21 (centres undefined)
inactive: SK-MEL-28 36.2 µM | SF-295 86.9 µM | UACC-62 55 µM | SW-620 > 100 µM | OVCAR-3 97.3 µM | RPMI-8226 55.8 µM | M14 37.4 µM | TK-10 70.8 µM | 786-0 70.3 µM | KM12 > 100 µM | HT-29 32.4 µM | SNB-78 > 100 µM | OVCAR-8 59.7 µM | KM-20L2 22.8 µM | HL-60 17.1 µM | DMS-114 37.8 µM

O=Cc1[nH]c2ccccc2c1Br
inactive: SK-MEL-28 25.1 µM | SF-295 38.4 µM | UACC-62 16.9 µM | SW-620 34.6 µM | OVCAR-3 21.8 µM | HOP-62 18 µM | M14 19.3 µM | A498 16.8 µM | TK-10 36.6 µM | 786-0 28 µM | KM12 26.3 µM | HT-29 25.1 µM | SNB-78 15.8 µM | OVCAR-8 23.7 µM | KM-20L2 22.2 µM | HL-60 13.8 µM | DMS-114 18.5 µM | CAKI-1 > 100 µM

OCC(O)C(O)c1nn(-c2ccccc2)c2nc3cc(Cl)c(Cl)cc3nc12 (centres undefined)
inactive: SK-MEL-28 41.3 µM | SF-295 31.4 µM | UACC-62 29.4 µM | SW-620 28.6 µM | OVCAR-3 27.4 µM | RPMI-8226 8.93 µM | HOP-62 47.5 µM | M14 27.9 µM | TK-10 16.7 µM | 786-0 18.8 µM | KM12 20.8 µM | HT-29 21.9 µM | SNB-78 50.2 µM | OVCAR-8 20.4 µM | KM-20L2 26.7 µM | HL-60 18.2 µM | DMS-114 21 µM | CAKI-1 16.6 µM
